From PMC4640556, “Primary Amine Oxidase of Escherichia coli Is a Metabolic Enzyme that Can Use a Human Leukocyte Molecule as a Substrate” (PLoS ONE, 2015)
Read-outs that look alike come from different tables or passages of the source.

Assays:
ECAO [1] = target: T1, ECAO (Escherichia coli, UniProt P46883); assay: ECAO inhibitor test (spectroscopic amine oxidase activity assay, purified ECAO, substrate PEA); type: biochemical; details: for decrease of ECAO activity by aminoglycoside: aminoglycoside 1 mM (Fig 2C), sisomycin p = 0.06; for IC50: purified ECAO
T1 construct: made in house; host or cells: E. coli; inferred from the overexpression strain E. coli (pKK233-3-tynA)
Protocol: To determine the effect of different inhibitors on ECAO activity, we used purified ECAO protein and a spectroscopic amine oxidase activity assay, which is not as sensitive to additives as the Amplex Red assay. In short, 21 ng of ECAO protein was incubated with differing amounts of inhibitors in Krebs-Ringer phosphate glucose buffer for 20 min at 30°C. After incubation, we added substrate (0.5 mM PEA) and a mixture of 1 mM vanillic acid, 0.5 mM 4-aminopyridine, and 16 U of horseradish peroxidase, and measured the A492nm immediately and hourly thereafter.

ECAO [2] = target: T1, ECAO; design: method as in PMID 7765483; details: cited from earlier work
wt E. coli (tynA+) = assay: Growth inhibition assay in liquid medium, wt / tynA+ strains; type: cell-based, Escherichia coli; details: SC concentrations lower than 5–10 mM (S5 Fig)
Protocol: (§1) To assess the effect of inhibitors on bacterial growth, discs with different concentrations of SC were placed on LA plates freshly plated with either tynA+ E. coli (three different strains) or tynA- E. coli (five strains). The inhibition zones were measured the next day. For the growth inhibition assay in a liquid medium, the same strains were cultured in tryptic soy broth (TSB) medium for 14–16 h. Then, 10^3 cells were inoculated into TSB medium with different concentrations (0–100 mg/mL) of SC and cultured further at 37°C with shaking at 100 rpm until the following day. Then, 10 μL of bacterial mixture was plated on lactose medium plates, and the plates were incubated at 37°C for 14–16 h before counting the colonies.
(§2) The inhibition of growth by a selective hydrazine-based human amine oxidase inhibitor, BTT-2052 [30], and SC on tynA+ and tynA- strains was tested similarly in M9-lactose-PEA medium using inhibitor concentrations of 0–0.5 mM.

ΔtynA strain = assay: Growth inhibition assay in liquid medium, ΔtynA / tynA- strains; type: cell-based, Escherichia coli; details: liquid medium (S5 Fig)
Protocol: as §1, §2

[3] = tested on: tynA+ E. coli and tynA- E. coli; assay: Growth inhibition on LA plates (discs with SC); type: cell-based, Escherichia coli; details: data not shown
Protocol: as §1

ECAO [4] = target: T1, ECAO; assay: ECAO activity with human granulocytes as sole substrate (Amplex Red, H2O2 production); type: biochemical; details: 30 nM ECAO, 200,000 granulocytes per well, 37°C, Cells + ECAO + SC, p = 0.004
Text: To test if ECAO has a substrate on human granulocytes, we used purified recombinant protein ECAO, whose production and purification has been described. To collect human neutrophils, we extracted granulocytes from the fresh peripheral blood of healthy volunteers using Ficoll (GE Healthcare). We collected buffy coats according to standard procedure, lysed red blood cells with Pharm Lyse (BD Biosciences, Franklin Lakes, NJ, USA), washed with PBS, counted the cells, and used the cells immediately. The assay was conducted in 25 mM HEPES and 150 mM NaCl (pH 7.4), and we used 30 nM ECAO and 200,000 viable granulocytes per well. PEA was used as a positive control for the substrate, and the specific activity was determined using parallel wells with SC, as described above. The assay was conducted at 37°C. Three independent assays (different blood donors) were performed with duplicates.

[5] = PEA, aminoglycoside concentrations 10 μM–10 mM, read-out: half maximal inhibitory concentration (IC50) of aminoglycosides on ECAO activity on PEA

T1 sequence (P46883 31-757): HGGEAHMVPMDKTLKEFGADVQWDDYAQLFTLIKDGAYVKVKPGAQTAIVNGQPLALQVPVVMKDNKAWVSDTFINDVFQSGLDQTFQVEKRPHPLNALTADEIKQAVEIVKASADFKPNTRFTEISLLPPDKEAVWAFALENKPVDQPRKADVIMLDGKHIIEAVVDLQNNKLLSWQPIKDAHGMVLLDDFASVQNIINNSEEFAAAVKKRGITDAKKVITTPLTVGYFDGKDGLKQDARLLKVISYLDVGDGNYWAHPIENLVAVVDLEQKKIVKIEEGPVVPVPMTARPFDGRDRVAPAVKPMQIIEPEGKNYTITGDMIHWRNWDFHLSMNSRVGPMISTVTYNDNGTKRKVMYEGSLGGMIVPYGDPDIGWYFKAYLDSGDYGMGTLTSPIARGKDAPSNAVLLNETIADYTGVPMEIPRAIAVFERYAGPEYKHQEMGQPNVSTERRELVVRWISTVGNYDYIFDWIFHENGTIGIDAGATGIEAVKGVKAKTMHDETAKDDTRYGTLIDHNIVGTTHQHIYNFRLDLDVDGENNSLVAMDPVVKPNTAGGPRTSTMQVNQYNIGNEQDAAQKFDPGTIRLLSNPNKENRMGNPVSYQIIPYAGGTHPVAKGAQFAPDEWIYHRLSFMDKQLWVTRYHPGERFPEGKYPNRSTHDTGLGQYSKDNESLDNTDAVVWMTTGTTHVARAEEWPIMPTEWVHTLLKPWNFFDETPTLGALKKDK

Compound | decrease of ECAO activity by aminoglycoside (ECAO [1]) | IC50 (ECAO [1]; [5]) | effect on ECAO activity (ECAO [2]) | also measured
CN[C@@H]1[C@@H](O)[C@@H](O[C@@H]2[C@@H](O)[C@H](O[C@H]3OC(CN)=CC[C@H]3N)[C@@H](N)C[C@H]2N)OC[C@]1(C)O [sisomycin] | 23–61% | – | – | –
NC[C@H]1O[C@H](O[C@H]2[C@H](O)[C@@H](O[C@H]3O[C@H](CO)[C@@H](O)[C@H](N)[C@H]3O)[C@H](N)C[C@@H]2N)[C@H](N)C[C@@H]1O [tobramycin] | 23–61% | 800 µM | – | –
NC[C@H]1O[C@H](O[C@H]2[C@H](O)[C@@H](O[C@H]3O[C@H](CO)[C@@H](O)[C@H](N)[C@H]3O)[C@H](N)C[C@@H]2N)[C@H](O)[C@@H](O)[C@@H]1O [kanamycin] | 23–61% | 3800 µM | – | –
Gentamycin | no effect | – | – | –
CC(C)NNC(=O)c1ccncc1 [iproniazid] | – | – | inhibited | –
NNCCc1ccccc1 [phenelzine] | – | – | inhibited | –
NNC(N)=O [SC, semicarbazide] | – | – | inhibited | IC50 (ECAO [1]; 0.5 mM PEA, seven inhibitor concentrations 0.1–10 μM, 30°C, read-out: half maximal inhibitory concentration (IC50) on ECAO activity on PEA): 0.7 µM; effect on growth in liquid rich media (wt E. coli (tynA+)): no significant effect; effect on growth of the ΔtynA strain (ΔtynA strain): no effect; effect on bacterial growth on LA plates ([3]; at 100 mg/mL): minimal; effect on bacterial growth on LA plates ([3]; under the concentration of 100 mg/mL): no effect; effect on H2O2 production by ECAO with granulocytes as only source of substrate (ECAO [4]): inhibited
NO [hydroxylamine] | – | – | inhibited | –
N[C@@H]1C[C@H]1c1ccccc1 [tranycypromine] | – | – | inhibited | –
NCC[C@H](O)C(=O)N[C@@H]1C[C@H](N)[C@@H](O[C@H]2O[C@H](CN)[C@@H](O)[C@H](O)[C@H]2O)[C@H](O)[C@H]1O[C@H]1O[C@H](CO)[C@@H](O)[C@H](N)[C@H]1O [amikacin] | 23–61% | 1000 µM | – | –
